Test: Stability of ribociclib QC samples in rat plasma
Assay type: in vitro ADME
Conditions: room temperature, autosampler 15°C, −80°C, three freeze-thaw cycles
Protocol: The method was validated per the guidelines of the Food and Drug Administration (US-FDA, 2022) and Chinese Pharmacopoeia (2020). Selectivity was determined by analyzing blank plasma samples from six different batches of rats and plasma samples from six different batches of rats after administration of ribociclib. There should be no interference, with retention times such that the blank plasma peak area is less than 5% of the internal standard (IS) and less than 20% of the lower limit of quantification (LLOQ). The calibration curves were evaluated using 10–4,000 ng/mL of ribociclib. Linearity was assessed by plotting the peak area ratios of the analyte to the IS against nominal concentrations, using weighted (1/x^2) least-squares linear regression. Accuracy and precision were determined for all concentrations derived from the calibration curves, ensuring that deviations were within 15% of the nominal concentration, except for the LLOQ, where the deviation should not exceed 20%. Precision and accuracy were assessed by analyzing plasma samples at low, medium, high, and LLOQ concentration levels over three consecutive days. The final precision and accuracy were determined by calculating the relative standard deviation (RSD) and relative error (RE) of the six samples. RSD and RE for QC concentrations were required to be within ±15%, and for the LLOQ, within ±20%. […]

CN(C)C(=O)c1cc2cnc(Nc3ccc(N4CCNCC4)cn3)nc2n1C1CCCC1 [RIBO, ribociclib]
stability of QC samples: excellent stability

Source: paper PMC11994961, “In Vivo pharmacokinetic interactions of ribociclib with rivaroxaban and apixaban in rats: implications for increased drug exposure and dose adjustments” (Frontiers in Pharmacology, 2025)
